According to US6900190B2, “Active substance combinations having insecticidal and acaricidal properties” (priority 2000, dated 2005):

Tested on: common spider mite (Tetranychus urticae)
Experiment: Tetranychus test (OP-resistant/spray treatment)
Type: in vivo
Settings: single active compound, 0.32 ppm, spray treatment of infested bean plants (Phaseolus vulgaris), OP-resistant mites
Source text: The expected action for a given combination of two active compounds can be calculated as follows, using the formula of S. R. Colby, Weeds 15 (1967), 20-22: […]
If • X is the efficacy, expressed as % of the untreated control, when employing active compound A at an application rate of m g/ha or in a concentration of m ppm, • Y is the efficacy, expressed as % of the untreated control, when employing active compound B at an application rate of n g/ha or in a concentration of n ppm and • E is the efficacy, expressed as % of the untreated control, when employing active compounds A and B at application rates of m and n g/ha or in a concentration of m and n ppm, then [formula]
If the actual insecticidal kill rate exceeds the calculated value, the action of the combination is superadditive, i.e. a synergistic effect is present. In this case, the actually observed insecticidal kill rate must exceed the value calculated using the above formula for the expected insecticidal kill rate (E).
Tetranychus test (OP-resistant/spray treatment) […]
After the desired period of time, the effect in % is determined. […] The kill rates determined are calculated using Colby's formula.

For `Cc1cc(C)c(C2=C(OC(=O)CC(C)(C)C)C3(CCCC3)OC2=O)c(C)c1` [Ex. (I-b-1)], the “Kill rate in % after 14 d” value was 0%.
With `COP(N)(=O)SC` (centres unmarked) [Metamidophos, methamidophos] the “Kill rate in % after 14 d” value was 0%.
